Article PMC7760477 (Nutrients, 2020)
Entries after “also recorded” stand apart in the source; their conditions may differ.

What was measured:
[1] = set-up: method as in Pietrzik et al., 2000 unpublished data; conditions: single equimolar dose; 23 women; mean (SD); ref Pietrzik et al., 2000 unpublished data; cited from earlier work
[2] = Indirect comparison of AUCs of plasma (6S)-5-Methyl-THF between the 2019 and 2009 studies; conditions: female, human, in vivo, 451 µg
Method: (§1) We used individual data from the two studies to calculate the AUC0–8 h of plasma (6S)-5-Methyl-THF. […] We extrapolated plasma concentrations of (6S)-5-Methyl-THF for the missing time points in the corresponding studies by calculating the mean of the concentrations at the two neighboring time points (=before and after the missing concentrations). […] The incremental AUCs of plasma (6S)-5-Methyl-THF were calculated and were expressed as nmol/L*h.

[3] = 2009 pharmacokinetic study (Prinz-Langenohl et al.): plasma (6S)-5-Methyl-THF by LC-MS-MS after a single oral dose in women; conditions: AUC0-8h of plasma (6S)-5-Methyl-THF; individual ratios; mean (SD)
Method: Plasma concentrations of (6S)-5-Methyl-THF were selectively measured in both studies.
as §1
The data analyses were conducted using individual data from the 24 subjects in the present pharmacokinetic study and 21 women (3 women were excluded due to implausible results) from the study of Prinz-Langenohl et al. [13].

[4] = Pharmacokinetic study (present, 2019): plasma (6S)-5-Methyl-THF by UPLC-MS/MS after a single oral dose
Method: Both folate compounds were provided in odorless gelatin capsules of identical appearance (Apotheke Roter Ochsen AG, Schaffhausen, Switzerland). The label carried a random ID number and the kinetic day 1 and day 2.
The randomization was carried out on kinetic day 1 by means of consecutive numbering and was stratified by sex. On the kinetic days, a permanent venous catheter was inserted in the morning. Blood (8 mL) was collected under fasting conditions (at t0) into EDTA-K^+-containing tubes. […] The study product (1 capsule) was administered with 150 mL water by the study personnel to ensure compliance. A folate-free protein drink (Scandishake® Mix, Nutricia GmbH, Erlangen, Germany) was dissolved in water and served at 1 h, 3 h and 6 h after the product intake. The drink provided 430 kcal per serving. On each kinetic day, 9 blood samples were collected between t0 and t8 h (8 mL each). […]
Plasma total folate levels were measured on the kinetic days by using Cobas autoanalyser (Elecsys®, Roche, Mannheim, Germany) at the Department of Clinical Chemistry, Saarland University Hospital, Germany. […] All plasma samples collected from the same subject (18 samples on both study visits) were prepared and measured in the same run. […]
Incremental areas under the observed concentration-time curve above baseline were calculated applying the trapezoidal rule and were expressed as nmol/L*h.

[5] = Pharmacokinetic study (present, 2019): plasma unmetabolized folic acid by UPLC-MS/MS after a single oral dose; conditions: over 8 h; limit of detection 0.20 nmol/L
Method: (§2) The label carried a random ID number and the kinetic day 1 and day 2.
(§3) The randomization was carried out on kinetic day 1 by means of consecutive numbering and was stratified by sex. On the kinetic days, a permanent venous catheter was inserted in the morning. Blood (8 mL) was collected under fasting conditions (at t0) into EDTA-K^+-containing tubes. […] The study product (1 capsule) was administered with 150 mL water by the study personnel to ensure compliance. A folate-free protein drink (Scandishake® Mix, Nutricia GmbH, Erlangen, Germany) was dissolved in water and served at 1 h, 3 h and 6 h after the product intake. The drink provided 430 kcal per serving. On each kinetic day, 9 blood samples were collected between t0 and t8 h (8 mL each). The diary records including documentation of adverse events were returned during the last blood collection session after 8 h of the intake. After a washout period of 2 weeks (only two participants returned at 11 and 17 days) and during the second study visit (kinetic day 2), the other study compound was administered following exactly the same procedure.
(§4) Plasma total folate levels were measured on the kinetic days by using Cobas autoanalyser (Elecsys®, Roche, Mannheim, Germany) at the Department of Clinical Chemistry, Saarland University Hospital, Germany. The CV% of the total folate assay was <6%. All plasma samples collected from the same subject (18 samples on both study visits) were prepared and measured in the same run. All blood samples were primary aliquots frozen at −70 °C for no longer than 3 months.

[6] = rated as unrelated to the study product
Method: On the kinetic days, a permanent venous catheter was inserted in the morning. Blood (8 mL) was collected under fasting conditions (at t0) into EDTA-K^+-containing tubes. […] The study product (1 capsule) was administered with 150 mL water by the study personnel to ensure compliance. […] On each kinetic day, 9 blood samples were collected between t0 and t8 h (8 mL each). The diary records including documentation of adverse events were returned during the last blood collection session after 8 h of the intake.

[7] = clinical; conditions: both, human, in vivo
Method: as §2, §3, §4

concentration at 0.5 h [7] [nM] | concentration at 1 h [7] [nM] | Tmax ([7]; po) [min] | SMILES | Incremental AUC0–8 h of plasma total folate [1] | AUC(0-t) [2] [nM·h] | AUC Ratio: AUCs (6S)-5-Methyl-THF-Ca/ folic acid 2009 [3] | AUC Ratio: AUCs of (6S)-5-Methyl-THF-Na/ AUC folic acid 2019 ([4]; AUC0-8h of plasma (6S)-5-Methyl-THF, individual ratios, mean (SD)) | Maximum concentrations of plasma (6S)-5-Methyl-THF reached earlier compared to folic acid ([4]; difference of Tmax versus folic acid) [min] | Plasma unmetabolized folic acid levels after intake [5] | Headaches reported on kinetic day 1 after intake [6]
– | – | – | CN1c2c(nc(N)[nH]c2=O)NC[C@@H]1CNc1ccc(C(=O)N[C@@H](CCC(=O)O)C(=O)O)cc1 [(6S)-5-Methyl-THF-Ca, (6S)-5-Methyltetrahydrofolic acid] | 85.0 (21.9) nmol/L*h | 136 | 2.29 (0.76) | – | – | – | –
– | – | – | CN1c2c(nc(N)[nH]c2=O)NC[C@@H]1CNc1ccc(C(=O)N[C@@H](CCC(=O)O)C(=O)O)cc1 [(6S)-5-Methyl-THF-Na, (6S)-5-Methyltetrahydrofolic acid] | – | – | – | 2.52 (1.02) | 60 | below the limit of detection; also recorded: remained undetectable | Three subjects reported headaches
2.5 | 4.7 | 30 to 60 | Nc1nc2ncc(CNc3ccc(C(=O)N[C@@H](CCC(=O)O)C(=O)O)cc3)nc2c(=O)[nH]1 [folic acid, pteroylmonoglutamic acid] | 50.3 (20.1) nmol/L*h | – | – | – | – | – | –
